Measurements reported in ChEMBL document CHEMBL1777786, “Synthesis of cholestane saponins as mimics of OSW-1 and their cytotoxic activities” (Bioorg Med Chem Lett, 2011).

Experiments:
Type in all cases: functional, cell-based
HCT-8 = experiment: Cytotoxicity against human HCT8 cells after 72 hrs by MTT assay; details: HCT-8, 72 h
A2780 = experiment: Cytotoxicity against human A2780 cells after 72 hrs by MTT assay; details: A2780, 72 h
BGC-823 = experiment: Cytotoxicity against human BGC823 cells after 72 hrs by MTT assay; details: BGC-823, 72 h
A549 = experiment: Cytotoxicity against human A549 cells after 72 hrs by MTT assay; details: A549, 72 h
Bel-7402 = experiment: Cytotoxicity against human Bel7402 cells after 72 hrs by MTT assay; details: Bel-7402, 72 h

Structure (SMILES): COc1ccc(C(=O)O[C@H]2[C@H](O[C@@H]3[C@@H](OC(C)=O)[C@H](O[C@H]4C[C@H]5[C@@H]6CC=C7C[C@@H](O)CC[C@]7(C)[C@H]6CC[C@]5(C)[C@H]4[C@H](C)CCC[C@@H](C)CO)OC[C@@H]3O)OC[C@@H](O)[C@@H]2O)cc1
- IC50 (HCT-8): 70 nM
- IC50 (A2780): 6 nM
- IC50 (BGC-823): 2 nM
- IC50 (A549): 9.3 nM
- IC50 (Bel-7402): 23 nM

Structure (SMILES): COc1ccc(C(=O)O[C@H]2[C@H](O[C@@H]3[C@@H](OC(C)=O)[C@H](O[C@H]4C=C5C[C@@H](O)CC[C@]5(C)[C@H]5CC[C@]6(C)[C@@H]([C@H](C)CCC[C@@H](C)CO)CC[C@H]6[C@H]45)OC[C@@H]3O)OC[C@@H](O)[C@@H]2O)cc1
- IC50 (HCT-8): > 10000 nM
- IC50 (A2780): > 10000 nM
- IC50 (BGC-823): > 10000 nM
- IC50 (A549): > 10000 nM
- IC50 (Bel-7402): > 10000 nM

Structure (SMILES): COc1ccc(C(=O)O[C@H]2[C@H](O[C@@H]3[C@@H](OC(C)=O)[C@H](O[C@H]4C=C5C[C@@H](O)CC[C@]5(C)[C@H]5CC[C@]6(C)[C@@H]([C@H](C)CCC[C@@H](C)CO)[C@@H](O)C[C@H]6[C@H]45)OC[C@@H]3O)OC[C@@H](O)[C@@H]2O)cc1
- IC50 (HCT-8): 75 nM
- IC50 (A2780): 1900 nM
- IC50 (BGC-823): 78 nM
- IC50 (A549): 87 nM
- IC50 (Bel-7402): 50 nM

Structure (SMILES): COc1ccc(C(=O)O[C@H]2[C@H](O[C@H]3CO[C@@H](O[C@H]4C[C@H]5[C@@H]6CC=C7C[C@@H](O)CC[C@]7(C)[C@H]6CC[C@]5(C)[C@H]4[C@H](C)CCC[C@@H](C)CO)[C@H](OC(C)=O)[C@H]3O)OC[C@@H](O)[C@@H]2O)cc1
- IC50 (HCT-8): > 10000 nM
- IC50 (A2780): > 10000 nM
- IC50 (BGC-823): > 10000 nM
- IC50 (A549): > 10000 nM
- IC50 (Bel-7402): > 10000 nM

Structure (SMILES): COc1ccc(C(=O)O[C@H]2[C@H](O[C@H]3CO[C@@H](O[C@H]4C=C5C[C@@H](O)CC[C@]5(C)[C@H]5CC[C@]6(C)[C@@H]([C@H](C)CCC[C@@H](C)CO)CC[C@H]6[C@H]45)[C@H](OC(C)=O)[C@H]3O)OC[C@@H](O)[C@@H]2O)cc1
- IC50 (HCT-8): > 10000 nM
- IC50 (A2780): > 10000 nM
- IC50 (BGC-823): > 10000 nM
- IC50 (A549): > 10000 nM
- IC50 (Bel-7402): > 10000 nM

Structure (SMILES): COc1ccc(C(=O)O[C@H]2[C@H](O[C@H]3CO[C@@H](O[C@H]4C=C5C[C@@H](O)CC[C@]5(C)[C@H]5CC[C@]6(C)[C@@H]([C@H](C)CCC[C@@H](C)CO)[C@@H](O)C[C@H]6[C@H]45)[C@H](OC(C)=O)[C@H]3O)OC[C@@H](O)[C@@H]2O)cc1
- IC50 (HCT-8): > 10000 nM
- IC50 (A2780): > 10000 nM
- IC50 (BGC-823): > 10000 nM
- IC50 (A549): > 10000 nM
- IC50 (Bel-7402): > 10000 nM

Structure (SMILES): CC(=O)O[C@H]1C(=O)[C@@]2(C)[C@H]([C@H](OC(=O)c3ccccc3)[C@]3(O)C[C@H](OC(=O)[C@H](O)[C@@H](NC(=O)c4ccccc4)c4ccccc4)C(C)=C1C3(C)C)[C@]1(OC(C)=O)CO[C@@H]1C[C@@H]2O [PACLITAXEL]
- IC50 (A2780): < 1 nM
- IC50 (BGC-823): < 1 nM
- IC50 (Bel-7402): 6 nM
